Data taken from patent US10329309B2, “3-(3H-imidazo[4,5-B]pyridin-2-yl)-1H-pyrazolo[4,3-B]pyridines and therapeutic uses thereof” (Samumed, LLC, priority 2015, dated 2019).

Columns and labels:
[1] = test system: Wnt activity (Sp5-Luc reporter, SW480 colon carcinoma cells); test: Screening assay for Wnt activity: Sp5-Luc reporter gene assay in SW480 cells; assay type: cell-based; conditions: Homo sapiens; for inhibition at 10 µM: 10 μM compound, read-out: percent inhibition at 10 μM (given for EC50 of >10 μM); for EC50: overnight incubation, 10-point dose-response from 10 μM
In short: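 SW480 cells stably carrying Sp5-Luc reporter (eight TCF/LEF sites) plated at 4,000/well in 1% FBS medium with compound (10-point 1:3 series from 10 μM, 0.1% DMSO) overnight at 37 °C. BrightGlo luminescence normalized to DMSO; EC50 by four-parameter fit, else % inhibition at 10 μM.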

[2] = test system: primary human fibroblasts derived from IPF patients (LL29 cells), α-smooth muscle actin (αSMA); test: Inhibition of the fibrotic process: TGF-β1-treated primary human fibroblasts from IPF patients, αSMA staining; assay type: cell-based; conditions: Fibroblast, 96 h, 4 days; for EC50: LL29 fibroblasts from IPF patients, TGF-β1 20 ng/mL, inhibition of fibrotic process; for inhibition at 10 µM: LL29 fibroblasts, TGF-β1 treated, read-out: percent inhibition at 10 μM (given for EC50 of >10 μM)
In short: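 Compound dilutions from 10 μM down to […] are dispensed, LL29 cells added in F12 with 1% FBS, and TGF-β1 (20 ng/mL) follows after 1 h. After 4 days, live-cell αSMA positivity is measured by immunofluorescence and normalized to TGF-β1-treated wells to derive EC50.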

| Structure (SMILES) | inhibition at 10 µM [1] | EC50 [1] | EC50 [2] | inhibition at 10 µM [2] |
| --- | --- | --- | --- | --- |
| Cc1cn(-c2ccnc3[nH]c(-c4n[nH]c5ccc(C6=CCNCC6)nc45)nc23)cn1 [Compound 618, 3-(7-(4-Methyl-1H-imidazol-1-yl)-3H-imidazo[4,5-b]pyridin-2-yl)-5-(1,2,3,6-tetrahydropyridin-4-yl)-1H-pyrazolo[4,3-b]pyridine] | 8.7% | > 10 µM | > 10 µM | 0% |
| O=C(Nc1cncc(-c2ccc3[nH]nc(-c4nc5c(-c6cccc(F)c6)ccnc5[nH]4)c3n2)c1)C1CC1 [Compound 20, N-(5-(3-(7-(3-Fluorophenyl)-3H-imidazo[4,5-b]pyridin-2-yl)-1H-pyrazolo [4,3-b]pyridin-5-yl)pyridin-3-yl)cyclopropanecarboxamide] | 51.2% | > 10 µM | > 10 µM | 20.2% |
| Cc1cn(-c2ccnc3[nH]c(-c4n[nH]c5ccc(-c6cncc(OCCN(C)C)c6)nc45)nc23)cn1 [Compound 627, N,N-Dimethyl-2-((5-(3-(7-(4-methyl-1H-imidazol-1-yl)-3H-imidazo[4,5-b]pyridin-2-yl)-1H-pyrazolo[4,3-b]pyridin-5-yl)pyridin-3-yl)oxy)ethan-1-amine] | 22.4% | > 10 µM | 4.8 µM | – |
| Cn1cc(-c2ccc3[nH]nc(-c4nc5c(-c6cc(F)cc(CNS(C)(=O)=O)c6)ccnc5[nH]4)c3n2)cn1 [Compound 764, N-(3-Fluoro-5-(2-(5-(1-methyl-1H-pyrazol-4-yl)-1H-pyrazolo[4,3-b]pyridin-3-yl)-3H-imidazo[4,5-b]pyridin-7-yl)benzyl)methanesulfonamide] | 20.9% | > 10 µM | > 10 µM | 26.8% |
| c1cncc(-c2ccnc3[nH]c(-c4n[nH]c5ccc(-c6cncc(OC7CCCCC7)c6)nc45)nc23)c1 [Compound 559, 5-(5-(Cyclohexyloxy)pyridin-3-yl)-3-(7-(pyridin-3-yl)-3H-imidazo[4,5-b]pyridin-2-yl)-1H-pyrazolo[4,3-b]pyridine] | 12.4% | > 10 µM | 5.18 µM | – |
| Cc1ccc(-c2ccnc3[nH]c(-c4n[nH]c5ccc(-c6cncc(NC(=O)C7CCCC7)c6)nc45)nc23)s1 [Compound 414, N-(5-(3-(7-(5-Methylthiophen-2-yl)-3H-imidazo[4,5-b]pyridin-2-yl)-1H-pyrazolo[4,3-b]pyridin-5-yl)pyridin-3-yl)cyclopentanecarboxamide] | 47% | > 10 µM | 0.066 µM | – |
| CC(C)(C)C(=O)Nc1cncc(-c2ccc3[nH]nc(-c4nc5c(-c6ccc(F)cc6)ccnc5[nH]4)c3n2)c1 [Compound 36, N-(5-(3-(7-(4-fluorophenyl)-3H-imidazo[4,5-b]pyridin-2-yl)-1H-pyrazolo [4,3-b]pyridin-5-yl)pyridin-3-yl)pivalamide] | 28.4% | > 10 µM | 2.56 µM | – |
| Nc1cncc(-c2ccc3[nH]nc(-c4nc5c(-c6ccccc6F)ccnc5[nH]4)c3n2)c1 [Compound 59, 5-(3-(7-(2-fluorophenyl)-3H-imidazo[4,5-b]pyridin-2-yl)-1H-pyrazolo[4,3-b]pyridin-5-yl)pyridin-3-amine] | 46.5% | > 10 µM | 2.41 µM | – |
| Cn1cc(-c2ccc3[nH]nc(-c4nc5c(-c6cccs6)ccnc5[nH]4)c3n2)cn1 [Compound 700, 5-(1-Methyl-1H-pyrazol-4-yl)-3-(7-(thiophen-2-yl)-3H-imidazo[4,5-b]pyridin-2-yl)-1H-pyrazolo[4,3-b]pyridine] | 3.4% | > 10 µM | 0.438 µM | – |
| Fc1cccc(-c2ccnc3[nH]c(-c4n[nH]c5ccc(-c6ccncc6)nc45)nc23)c1 [Compound 18, 3-(7-(3-fluorophenyl)-3H-imidazo[4,5-b]pyridin-2-yl)-5-(pyridin-4-yl)-1H-pyrazolo[4,3-b]pyridine] | 21% | > 10 µM | > 10 µM | 21.4% |
| CCCC(=O)Nc1cncc(-c2ccc3[nH]nc(-c4nc5c(-c6cc(F)cc(CNS(C)(=O)=O)c6)ccnc5[nH]4)c3n2)c1 [Compound 493, N-(5-(3-(7-(3-fluoro-5-(methylsulfonamidomethyl)phenyl)-3H-imidazo[4,5-b]pyridin-2-yl)-1H-pyrazolo[4,3-b]pyridin-5-yl)pyridin-3-yl)butyramide] | 14.8% | > 10 µM | > 10 µM | 0% |
| CN(C)CCNc1cc(F)cc(-c2ccnc3[nH]c(-c4n[nH]c5ccc(-c6ccccn6)nc45)nc23)c1 [Compound 476, N^1-(3-Fluoro-5-(2-(5-(pyridin-2-yl)-1H-pyrazolo[4,3-b]pyridin-3-yl)-3H-imidazo[4,5-b]pyridin-7-yl)phenyl)-N^2,N^2-dimethylethane-1,2-diamine] | 15.5% | > 10 µM | 4.41 µM | – |
| CCC(=O)Nc1cncc(-c2ccc3[nH]nc(-c4nc5c(N6CCCCC6)ccnc5[nH]4)c3n2)c1 [Compound 169, N-(5-(3-(7-(piperidin-1-yl)-3H-imidazo[4,5-b]pyridin-2-yl)-1H-pyrazolo[4,3-b]pyridin-5-yl)pyridin-3-yl)propionamide] | 44.2% | > 10 µM | 5.3 µM | – |
| CN1CCN(c2ccnc3[nH]c(-c4n[nH]c5ccc(-c6cncc(OC7CCCCC7)c6)nc45)nc23)CC1 [Compound 639, 5-(5-(Cyclohexyloxy)pyridin-3-yl)-3-(7-(4-methylpiperazin-1-yl)-3H-imidazo[4,5-b]pyridin-2-yl)-1H-pyrazolo[4,3-b]pyridine] | – | 4.06 µM | 3.27 µM | – |
| CS(=O)(=O)NCc1cc(F)cc(-c2ccnc3[nH]c(-c4n[nH]c5ccc(-c6cncnc6)nc45)nc23)c1 [Compound 503, N-(3-Fluoro-5-(2-(5-(pyrimidin-5-yl)-1H-pyrazolo[4,3-b]pyridin-3-yl)-3H-imidazo[4,5-b]pyridin-7-yl)benzyl)methanesulfonamide] | 14.1% | > 10 µM | > 10 µM | 0% |
| c1cc(-c2ccoc2)c2nc(-c3n[nH]c4ccc(-c5cncc(OCCN6CCCC6)c5)nc34)[nH]c2n1 [Compound 690, 3-(7-(Furan-3-yl)-3H-imidazo[4,5-b]pyridin-2-yl)-5-(5-(2-(pyrrolidin-1-yl)ethoxy)pyridin-3-yl)-1H-pyrazolo[4,3-b]pyridine] | 37.6% | > 10 µM | 4.75 µM | – |
| Cn1cc(-c2ccc3[nH]nc(-c4nc5c(-c6ccc(F)cc6)ccnc5[nH]4)c3n2)c(CO)n1 [Compound 1129, (4-(3-(7-(4-Fluorophenyl)-3H-imidazo[4,5-b]pyridin-2-yl)-1H-pyrazolo[4,3-b]pyridin-5-yl)-1-methyl-1H-pyrazol-3-yl)methanol] | 14.8% | > 10 µM | 0.342 µM | – |
| O=C(CC1CCNCC1)Nc1cncc(-c2ccc3[nH]nc(-c4nc5c(-c6ccsc6)ccnc5[nH]4)c3n2)c1 [Compound 673, 2-(Piperidin-4-yl)-N-(5-(3-(7-(thiophen-3-yl)-3H-imidazo[4,5-b]pyridin-2-yl)-1H-pyrazolo[4,3-b]pyridin-5-yl)pyridin-3-yl)acetamide] | 26.9% | > 10 µM | 4.75 µM | – |
